Test results published in US20120321584A1, “PROCESSES FOR PREPARING AMINE SALTS OF KMUP-3 AND USE THEREOF” (KAOHSIUNG MEDICAL UNIVERSITY, priority 2011, published 2012).

Experiments:
[1] = Hemodynamic measurements in anesthetized rats (LVSP, dP/dt, MABP, HR); format: in vivo, Wistar rats; conditions: intravenous pretreatment at 1 mg/kg; KMUP-3 1 mg/kg, i.v.
Protocol: Hemodynamic measurements were carried out in male Wistar rats weighting 300˜350 g, anesthetized with pentobarbital sodium (40 mg kg^−1, i.p.). In brief, polyethylene tubing (PE50) was placed in the trachea to keep the airway patent, and rats continued to breathe spontaneously. Subsequently, rats were used to record hemodynamic and cardiovascular function. Vascular catheters (PE50) were placed in the femoral arteries to measure mean arterial blood pressure (MABP) and heart rate (HR). Changes of MABP and HR caused by KMUP-3 or KMUP-3 amine salt were recorded from the femoral artery with a pressure transducer (Gould, Model P50, U.S.A.), connected with a Pressure Processor Amplifier (Gould, Model 13-4615-52, U.S.A.). A femoral vein was used for intravenous administration of KMUP-3 or KMUP-3 amine salt. A specialized transducer tip catheter was placed in the right carotid artery and advanced into the left ventricle of the heart for measurement of left ventricular pressure (LVSP) or contractility; dP/dt at 50 mm Hg, an index of cardiac contractility, was derived from the left ventricular pressure trace; post-hoc vascular resistance was calculated as mean arterial blood pressure/peripheral cardiac output (MABP/PCO). Body temperature was monitored throughout the experiment and maintained between 37 and 37.5° C. by using a heating pad.
Each dose of active drugs was administered as a 20-min infusion in a series of escalating doses dissolved in a 5% dextrose water vehicle. […] KMUP-3 HCl or KMUP-3 amine salt were infused at 0.03, 0.05, and 0.075 μg/kg/20 min for the measurement of FABP, intraperitoneally injected at 0.03, 0.05 and 0.1 mg/kg for the measurement of MABP and HR and infused by intravenous injection for 2 min at 0.5, 1.0, 3.0 mg/kg dissolved in 5% dextrose water vehicle (2 ml) for the measurement of LV systolic pressure (LVSH), ABP, dP/dt, and HR. The primary hemodynamic variables were computed using commercial software and a signal processing workstation. Animals were randomly divided into one of six treatment or vehicle groups. After the completion of the surgical protocol, animals were allowed to stabilize for 1 h, and baseline data were collected at 5-min intervals for 30 min before the treatment.

[2] = tested on: electrically-stimulated left atria; assay: Electrically-stimulated beating left atrium, organ bath; format: cell-based, guinea-pig; conditions: propranolol and Y27632 1 μM, C3 exoenzyme 50 μg/mL, ketanserin 1.0 μM, L-NAME 100 μM
Protocol: (§1) Organ bath experiments and tissue procurement. Guinea-pigs were killed by a blow on the head. Their hearts were quickly excised and trimmed of excess tissues. The atrium was carefully removed and placed at room temperature (20˜25° C.) in a Krebs solution of the following composition (mM): NaCl 113, KCl 4.8, CaCl2 2.2, KH2PO4 1.2, MgCl2 1.2, NaHCO3 25, dextrose 11.0; bubbled with a 95% O2+5% CO2 mixture, followed by separation of right and left atrium for subsequent experiments.
Quiescent left atria free of connective tissues were dissected and mounted in an organ bath under a resting tension of 0.5 g. Organs were bathed at 32.5° C. in aerated Krebs solution and electrically stimulated with 1 Hz at […] via two platinum electrodes placed at either side. The positive inotropic effect was measured by determining the cumulative concentration-response curves in the presence of KMUP-3 or KMUP-3 amine salt (0.1, 1.0, 10, 100 μM). To examine the possible involvement of NO and cAMP/cGMP in the action of KMUP-3 or KMUP-3 amine salt on electrically-stimulated beating atria, pre-incubated with a ROCK inhibitor Y27632 (1.0 μM), a β-adrenoceptor blocker propranolol (1.0 μM), eNOS inhibitors L-NAME (100 μM), 7-nitroindazole (100 μM) and 5-HT inhibitor ketanserin (1.0 μM) was performed for 15 min prior to the addition of KMUP-3 or KMUP-3 amine salt to measure the development of beating force and heart rate for 10 min.

[3] = tested on: ROCKII; assay: ROCKII expression in electrically-stimulated left atria, Western blotting; format: cell-based, guinea-pig; conditions: Y27632 1-100 μM
Protocol: (§2) Protein extraction and Western blotting analysis. Briefly, after incubation with test agents in an organ bath, isolated beating atrium was frozen and pulverized to a fine powder at the temperature of liquid nitrogen. Atrium powders were then homogenized in protein extraction reagent (Pierce Biotechnology, Inc., Rockford, Ill.) by sonication. The samples were sonicated 10 sec three times and centrifuged at 13,000 rpm at 4° C. for 30 min. The protein concentrations of supernatants were determined by using bovine serum albumin as the standard. The cell extracts were then boiled in a ratio of 4:1 with sample buffer (Tris 100 mM, pH 6.8; glycerol 20%, Sodium dodecyl sulfate (SDS) 4% and bromophenol blue 0.2%). Electrophoresis was performed using 10% SDS-PAGE and transferred to nitrocellulose membranes (Millipore Corp., Billerica, Mass.). The membrane was blocked with Tris-buffered saline (TBS; 20 mM Tris and 137 mM NaCl, pH 7.6) containing 0.1% Tween 20 (TTBS) and 5% nonfat milk at room temperature for 1 h, washed with TTBS, and then incubated overnight at 4° C. in the appropriate primary antibody for PKARI, RhoA, ROCKII, p-CIP-17, CPI-17 and PKG1α1β. The membranes were washed in TTBS before being incubated with horseradish peroxidase-conjugated antibody against mouse, goat, or rabbit IgG for 1 hr. Membranes were then washed in TTBS and developed with the enhanced chemiluminescence for the detection of the specific antigen. The intensity of the bands was measured by densitometry. eNOS or phosphorylated eNOS were extracted from cell culture of neonatal myocytes, PA ring and aortic ring (2-3 mm) of rats and measured by Western blotting analysis.
(§3) PK, ROCKII and CIP-17 expression and pretreatment of beating left atrium. To examine whether KMUP-3 or KMUP-3 amine salt affects the protein expression in beating atrium, PKA, ROCKII, PKG and phosphorylated CIP-17 was determined by Western blotting, respectively. […]

[4] = tested on: PKA; assay: PKA expression in electrically-stimulated left atria, Western blotting; format: cell-based, guinea-pig; conditions: Y27632 1-100 μM
Protocol: as §2, §3

[5] = tested on: PKCα; assay: PKCα translocation of beating left atrium; format: cell-based, guinea-pig; conditions: Y27632 1-10 μM
Protocol: To determine the effect of KMUP-3 or KMUP-3 amine salt on PKCa translocation, isolated left beating atrium was incubated with KMUP-3 or KMUP-3 amine salt for 30 minutes (0.1-10 μM). In brief, frozen left atrium was pulverized to a fine powder at the temperature of liquid nitrogen for preparation of cytosolic and membrane fractions. Isolated left atrium tissues were then homogenized by a sonicator (XL-2020, Heat Systems Ultrasonic, Plainview, N.Y., USA) at 4 in 1 ml of homogenization buffer containing 20 mM Tris-HCl (pH 7.5), 1 mM dithiothreitol (DTT), 5 mM EGTA, 2 mM EDTA, 0.5 mM PMSF, 20 μM leupeptin and 20 μM aprotinin. The cytosol fractions were obtained by collecting the supernatants after centrifuging the cells at 100,000×g for 45 minutes at 4. The pellets were resonicated in the homogenizing buffer with 1% Triton X-100, centrifuged again at 100,000×g for 45 minutes at 4, and the supernatants collected as membrane fractions. The extracts for cytosol and membrane fractions were denatured by heating at for 10 minutes in sampling buffer, and an aliquot containing 20 μg of total protein was subjected to a 10% SDS-polyacrylamide gel electrophoresis. […] Protein was detected with horseradish peroxidase (HRP) conjugated secondary antibody (BD Transduction Laboratories). […] The immunoreactive bands were detected by chemiluminescence (ECL) reagents (PerkinElmer Life Sciences, Inc).

[6] = tested on: L-type Ca2+ channels; assay: Ca2+ entry currents in H9c2 cells, whole cell patch-clamp; format: cell-based, rat; conditions: KMUP-3 10 μM with KT5823 3 μM or Y27642 50 μM
From the text: To measure the ICa through L-type Ca^2+ channels, whole cell patch-clamp electrophysiology was used in rat heart-derived H9c2 cells as previously described. In brief, H9c2 cells were placed in a recording dish and perfused with a bath solution containing (in mM): 135 tetraethylammonium (TEA)-Cl, 1.8 CaCl2, 2 MgCl2, 10 glucose, and 10 HEPES (pH 7.4, Tris). […] Negative pressure was briefly applied to rupture the membrane and a gigaohm seal was obtained.
H9c2 cells were clamped at −80 mV with step depolarizations (300 ms) from −80 to 0 mV to evoke whole-cell ICa. Voltage clamped cells were equilibrated for 15 min prior to experimentation. Membrane currents were recorded on an Axopatch 700A amplifier (Axon Instruments, Union City, Calif.), filtered at 1 kHz using a low-pass Bessel filter, digitized at 5 kHz and stored on a computer for subsequent analysis with Clampfit 9.0. Following equilibration, ICa was monitored in the presence and absence of KMUP-3 or KMUP-3 amine salt (1, 10, 100 μM). To ascertain whether PKG or ROCK signaling was involved in the KMUP-3-induced decreases in ICa, H9c2 cells were incubated for 15 min with the combination of KMUP-3 or KMUP-3 amine salt (10 μM) and PKG antagonist KT5823 (3 μM) or ROCK inhibitor Y-27632 (50 μM). All electrical recordings were performed at room temperature.

[7] = tested on: isolated spontaneously beating right atrium; assay: Spontaneously beating right atrium, organ bath; format: cell-based, guinea-pig
Protocol: as §1
Spontaneously beating right atrium was dissected from the heart and mounted in a 10 ml organ bath with one end fixed and the other end connected to a force displacement transducer (Grass, Model FT03). The frequency of contraction was measured on a separate channel by a tachometer (Coulbourn, Model S77-26) connected to a high-speed videograph (Coulbourn, AT L19-69). These experiments were carried out at 32.5° C. in Krebs solution. The atria strip was pre-stretched to a baseline tension of 0.5 g and equilibrated for 90 min in aerated (95% O2+5% CO2) Krebs solution before the experimental protocols were initiated. The atria were then allowed a 30-60 min washout period to re-stabilize. KMUP-3 or KMUP-3 amine salt (0.1, 1.0, 10, 100 μM) were then cumulatively added to the organ bath. […]

[8] = tested on: electrically-stimulated left atria; assay: Electrically-stimulated beating left atrium, organ bath; format: cell-based, guinea-pig; conditions: 0.1~30 μM, electrical stimulation 1 Hz

**Q.** For `C[C@@H](N)[C@H]1CC[C@H](C(=O)Nc2ccncc2)CC1` [Y27632, reference compound], which “Effect of pretreatment on the effects (LVSP, dP/dt, MABP) induced by KMUP-3” value [1] is on record?
**A.** inhibited

**Q.** What about the “Effect of pretreatment on KMUP-3-induced positive inotropic activity” value [2] of the same molecule?
**A.** reduced

**Q.** What about the “Effect on KMUP-3-induced expression of ROCK II” value [3] of the same molecule?
**A.** inhibited

**Q.** And the “Effect on KMUP-3-induced expression of PKA” value [4]?
**A.** inhibited

**Q.** What about the “Effect of pretreatment on KMUP-3-induced translocation of PKCα” value [5] of the same molecule?
**A.** insignificantly prevented

**Q.** And the “Effect of combination on currents reduced by KMUP-3” value [6]?
**A.** restored

**Q.** For `CN1[C@@H]2CC[C@H]1C[C@@H](OC(=O)C(CO)c1ccccc1)C2` (stereo partly drawn) [atropine], which “Effect of pretreatment on the beating frequency decreased by KMUP-3” value ([7]; atropine 1 μM, 7-nitroindazole 100 μM) is on record?
**A.** up-regulated

**Q.** Which results are given for `O=C(c1ccc(F)cc1)C1CCN(CCn2c(=O)[nH]c3ccccc3c2=O)CC1` [ketanserin, reference compound]?
**A.** Effect of pretreatment on the effects (LVSP, dP/dt, MABP) induced by KMUP-3 [1]: inhibited; Effect of pretreatment on KMUP-3-induced positive inotropic activity [2]: reduced

**Q.** Which results are given for `Cc1[nH]c(=O)c(C#N)cc1-c1ccncc1` [milrinone]?
**A.** Chronotropic effect (beating frequency) ([7]; 0.1-30 μM): increased; Inotropic effect (contraction force) ([7]; 0.1-30 μM): increased; Left atrium contractility [8]: concentration-dependently increased

**Q.** With `CC(C)NCC(O)COc1cccc2ccccc12` (stereo not drawn) [propranolol, reference compound] as the molecule, how does the “Effect of pretreatment on the effects (LVSP, dP/dt, MABP) induced by KMUP-3” value [1] read?
**A.** inhibited

**Q.** And the “Effect of pretreatment on KMUP-3-induced positive inotropic activity” value [2]?
**A.** reduced

**Q.** For “C3 exoenzyme: C3 exoenzyme, used at 50 μg/mL as pretreatment”, which “Effect of pretreatment on KMUP-3-induced positive inotropic activity” value [2] is on record?
**A.** reduced
